Results reported in ChEMBL document CHEMBL1201862, “PubChem BioAssay data set” (2004).
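Compound exposure: 48 hours, 5 concentrations, 96-well plates. Abbreviation: GI50, concentration required for 50% inhibition of growth.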 Active and inactive are the calls of the source. Cut-off read from the data, not from the text of the source: active = GI50 up to about 1.1 µM and inactive = higher.

Legend:
Test in all cases: inhibition of tumour cell growth, NCI panel, 48 h
NCI-H23 = tested on: NCI-H23
DU-145 = tested on: DU-145
UACC-62 = tested on: UACC-62
HT-29 = tested on: HT-29
NCI-H226 = tested on: NCI-H226
HOP-62 = tested on: HOP-62
MOLT-4 = tested on: MOLT-4
IGROV-1 = tested on: IGROV-1
U-251 = tested on: U-251
HCT-116 = tested on: HCT-116
HCT-15 = tested on: HCT-15
CAKI-1 = tested on: CAKI-1
LOX IMVI = tested on: LOX IMVI
COLO 205 = tested on: COLO 205
TK-10 = tested on: TK-10
RPMI-8226 = tested on: RPMI-8226
SK-MEL-2 = tested on: SK-MEL-2
Malme-3M = tested on: Malme-3M
SN12C = tested on: SN12C
DLD-1 = tested on: DLD-1

SMILES | GI50 (NCI-H23) | GI50 (DU-145) | GI50 (UACC-62) | GI50 (HT-29) | GI50 (NCI-H226) | GI50 (HOP-62) | GI50 (MOLT-4) | GI50 (IGROV-1) | GI50 (U-251) | GI50 (HCT-116) | GI50 (HCT-15) [µM] | GI50 (CAKI-1) | GI50 (LOX IMVI) | GI50 (COLO 205) | GI50 (TK-10) | GI50 (RPMI-8226) | GI50 (SK-MEL-2) | GI50 (Malme-3M) | GI50 (SN12C) | GI50 (DLD-1)
O=C1c2c(Br)sc(Br)c2C(=O)C1(O)O | 33.4 µM (inactive) | > 100 µM (inactive) | 76.2 µM (inactive) | 39.3 µM (inactive) | > 100 µM (inactive) | > 100 µM (inactive) | 33.6 µM (inactive) | > 100 µM (inactive) | 39.7 µM (inactive) | 19.7 µM (inactive) | 27.1 | 18.6 µM (inactive) | > 100 µM (inactive) | 23.4 µM (inactive) | 72.3 µM (inactive) | 46.6 µM (inactive) | 29.8 µM (inactive) | 19.3 µM (inactive) | 98.9 µM (inactive) | 
Cc1cc(Cl)ccc1NC(=O)CC1SC(NC(=O)c2ccccc2Cl)=NC1=O (stereo unspecified) | 50.2 µM (inactive) |  | 27.1 µM (inactive) | 21.5 µM (inactive) | 25.2 µM (inactive) |  | 2.89 µM (inactive) | 38.2 µM (inactive) | 15.7 µM (inactive) | 17.9 µM (inactive) | 19.1 | 19.2 µM (inactive) | 21.9 µM (inactive) |  | > 10 µM (inactive) | 15.2 µM (inactive) | 26.7 µM (inactive) | 19.7 µM (inactive) | 17.7 µM (inactive) | 19.1 µM (inactive)
c1ccc2c(c1)nnn1c3cnccc3nc21 | 37.8 µM (inactive) |  | 47 µM (inactive) | 28.2 µM (inactive) |  | 40.2 µM (inactive) | 15.7 µM (inactive) | 36.4 µM (inactive) | 28.3 µM (inactive) | 27.6 µM (inactive) | 22.6 | 28.6 µM (inactive) | 39.1 µM (inactive) | 20.7 µM (inactive) | 35.2 µM (inactive) | 18.5 µM (inactive) | 53.2 µM (inactive) | > 100 µM (inactive) | 32.4 µM (inactive) | 27.5 µM (inactive)
CCCCCCCSCC(O)COC(c1ccccc1)(c1ccccc1)c1ccccc1 (stereo unspecified) | 14.8 µM (inactive) | > 100 µM (inactive) | 65.8 µM (inactive) | 19.7 µM (inactive) | 18.1 µM (inactive) | > 100 µM (inactive) | 28.4 µM (inactive) | > 100 µM (inactive) | 50.9 µM (inactive) | 40.6 µM (inactive) | 41.6 | 60.4 µM (inactive) | 36.1 µM (inactive) | 39.8 µM (inactive) | 87.3 µM (inactive) | 17.5 µM (inactive) | 18.3 µM (inactive) | 60 µM (inactive) | 37.7 µM (inactive) | 
COc1cccc(NC(=O)/C(CC(=O)CC(c2ccccc2)c2c(O)c3ccccc3oc2=O)=N\NC(C)(C)C)c1OC (stereo unspecified) |  |  | 33.3 µM (inactive) |  |  | 86.1 µM (inactive) | 28.7 µM (inactive) | 64.3 µM (inactive) | > 100 µM (inactive) | 69 µM (inactive) | 28.4 | 36.1 µM (inactive) | 36.9 µM (inactive) | > 100 µM (inactive) | > 100 µM (inactive) | 29.3 µM (inactive) | > 100 µM (inactive) | > 100 µM (inactive) |  | 40.6 µM (inactive)
CCOC(=O)/C=C1\Nc2ccccc2C(c2ccccc2)=NC1OC(C)=O (stereo unspecified) | > 100 µM (inactive) |  | 79.6 µM (inactive) | 57.5 µM (inactive) |  | > 100 µM (inactive) | > 100 µM (inactive) | > 100 µM (inactive) | > 100 µM (inactive) | > 100 µM (inactive) | > 100 | 94.6 µM (inactive) | > 100 µM (inactive) | > 100 µM (inactive) |  | 76.6 µM (inactive) | > 100 µM (inactive) | > 100 µM (inactive) | > 100 µM (inactive) | > 100 µM (inactive)
O=C(Cc1nc2ccc([N+](=O)[O-])cc2nc1O)C(=O)Nc1ccccc1[N+](=O)[O-] | > 100 µM (inactive) |  | > 100 µM (inactive) | > 100 µM (inactive) | > 100 µM (inactive) |  | > 100 µM (inactive) | > 100 µM (inactive) |  | 95.7 µM (inactive) | 44.1 | > 100 µM (inactive) | 60.7 µM (inactive) | > 100 µM (inactive) | > 100 µM (inactive) |  | > 100 µM (inactive) | > 100 µM (inactive) |  | > 100 µM (inactive)
COC(=O)c1cc(Cl)ccc1NC(=O)c1ccc([N+](=O)[O-])cc1 | 18.8 µM (inactive) |  | 24.2 µM (inactive) | 14.8 µM (inactive) | 20.3 µM (inactive) | 15.2 µM (inactive) | 35.6 µM (inactive) | 19.8 µM (inactive) | 7 µM (inactive) | 4.78 µM (inactive) | 32.2 | 15.3 µM (inactive) |  |  | 16.9 µM (inactive) | 20.2 µM (inactive) | 49 µM (inactive) | 23 µM (inactive) |  | 38.8 µM (inactive)
